Source: ChEMBL document CHEMBL4402535, “Ellagic acid a multi-target bioactive compound for drug discovery in CNS? A narrative review” (Eur J Med Chem, 2019)

What was measured:
[1] = molecular target: Acetylcholinesterase (Electrophorus electricus) (UniProt O42275); assay: Inhibition of electric eel AChE using acetylthiocholine iodide as substrate
[2] = Antioxidant activity assessed as NO radical scavenging activity after 1 hr; assay type: functional
[3] = molecular target: Acetylcholinesterase (Electrophorus electricus, UniProt O42275); assay: Inhibition of electric eel AChE using acetylthiocholine iodide as substrate measured at 1 min intervals for 5 mins by Ellman's method
Sequence of Acetylcholinesterase (O42275 whole entry): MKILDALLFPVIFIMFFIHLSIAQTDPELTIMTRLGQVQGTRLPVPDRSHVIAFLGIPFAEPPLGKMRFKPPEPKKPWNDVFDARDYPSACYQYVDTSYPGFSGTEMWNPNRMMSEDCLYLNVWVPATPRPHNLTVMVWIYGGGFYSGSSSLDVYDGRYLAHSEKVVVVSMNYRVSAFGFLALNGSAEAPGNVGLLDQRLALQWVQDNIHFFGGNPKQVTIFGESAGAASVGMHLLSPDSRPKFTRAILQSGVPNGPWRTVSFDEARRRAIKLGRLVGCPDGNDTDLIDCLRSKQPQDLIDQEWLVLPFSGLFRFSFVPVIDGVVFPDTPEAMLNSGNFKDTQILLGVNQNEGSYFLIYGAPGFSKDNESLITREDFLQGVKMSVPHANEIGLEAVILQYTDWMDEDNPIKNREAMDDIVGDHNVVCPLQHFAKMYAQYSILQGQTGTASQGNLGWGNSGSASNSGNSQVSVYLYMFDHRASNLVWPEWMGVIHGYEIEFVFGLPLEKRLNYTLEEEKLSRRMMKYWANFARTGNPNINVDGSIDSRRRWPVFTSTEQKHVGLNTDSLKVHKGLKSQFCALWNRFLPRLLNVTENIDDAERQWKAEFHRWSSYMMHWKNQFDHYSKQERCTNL

[4] = molecular target: T1, Amyloid-beta precursor protein (Homo sapiens, UniProt P05067); assay: Inhibition of beta amyloid (unknown origin) after 12 to 24 hrs
T1 sequence (P05067 whole entry): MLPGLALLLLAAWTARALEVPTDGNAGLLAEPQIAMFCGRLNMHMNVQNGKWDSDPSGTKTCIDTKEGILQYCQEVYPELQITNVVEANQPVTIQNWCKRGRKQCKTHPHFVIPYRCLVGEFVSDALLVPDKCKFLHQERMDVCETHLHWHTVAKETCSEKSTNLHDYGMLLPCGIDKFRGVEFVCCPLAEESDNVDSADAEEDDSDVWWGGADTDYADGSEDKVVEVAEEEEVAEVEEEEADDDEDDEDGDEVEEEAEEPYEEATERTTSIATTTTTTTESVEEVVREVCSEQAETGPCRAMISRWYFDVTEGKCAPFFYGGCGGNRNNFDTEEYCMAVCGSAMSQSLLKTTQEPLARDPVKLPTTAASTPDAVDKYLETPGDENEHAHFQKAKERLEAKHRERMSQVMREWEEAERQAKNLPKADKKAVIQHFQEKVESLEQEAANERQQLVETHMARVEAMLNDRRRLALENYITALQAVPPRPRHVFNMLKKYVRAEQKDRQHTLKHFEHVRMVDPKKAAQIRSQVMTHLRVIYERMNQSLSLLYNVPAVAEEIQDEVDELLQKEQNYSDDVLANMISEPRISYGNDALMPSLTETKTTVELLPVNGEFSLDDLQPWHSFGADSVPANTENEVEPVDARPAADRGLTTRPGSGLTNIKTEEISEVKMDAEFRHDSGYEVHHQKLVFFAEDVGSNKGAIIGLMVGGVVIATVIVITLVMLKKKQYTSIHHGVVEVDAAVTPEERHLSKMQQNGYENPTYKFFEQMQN

[5] = molecular target: Salmon testes DNA; assay: Binding affinity to salmon DNA isolated from testis using dopamine as substrate in presence of CuCl2; assay type: nucleic-acid assay, Salmonidae
[6] = Antioxidant activity assessed as DPPH radical scavenging activity; assay type: functional
[7] = molecular target: Cholinesterase (Equus caballus) (UniProt P81908); assay: Inhibition of equine serum BuChE using S-butyrylthiocholine chloride as substrate
Sequence of Cholinesterase (Equus caballus) (P81908 whole entry): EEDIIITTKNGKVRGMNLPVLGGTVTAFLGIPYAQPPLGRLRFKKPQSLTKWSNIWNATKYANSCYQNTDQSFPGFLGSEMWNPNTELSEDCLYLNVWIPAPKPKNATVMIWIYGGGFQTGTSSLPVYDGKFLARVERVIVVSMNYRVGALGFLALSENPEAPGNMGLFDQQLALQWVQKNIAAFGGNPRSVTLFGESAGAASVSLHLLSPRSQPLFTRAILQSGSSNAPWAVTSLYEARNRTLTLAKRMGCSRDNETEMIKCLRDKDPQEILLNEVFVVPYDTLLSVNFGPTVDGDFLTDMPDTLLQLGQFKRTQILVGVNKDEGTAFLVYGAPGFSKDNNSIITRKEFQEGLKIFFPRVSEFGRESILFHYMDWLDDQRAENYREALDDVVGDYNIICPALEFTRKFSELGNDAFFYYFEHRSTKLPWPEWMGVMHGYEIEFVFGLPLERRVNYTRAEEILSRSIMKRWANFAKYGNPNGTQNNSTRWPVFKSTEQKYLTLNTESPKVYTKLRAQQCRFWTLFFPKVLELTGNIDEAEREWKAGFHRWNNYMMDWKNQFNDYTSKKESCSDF

[8] = Antioxidant activity assessed as DPPH radical scavenging activity after 1 hr; assay type: functional
[9] = molecular target: T2, Amine oxidase [flavin-containing] A (Homo sapiens, UniProt P21397); assay: Inhibition of MAO-A (unknown origin)
T2 sequence (P21397 whole entry): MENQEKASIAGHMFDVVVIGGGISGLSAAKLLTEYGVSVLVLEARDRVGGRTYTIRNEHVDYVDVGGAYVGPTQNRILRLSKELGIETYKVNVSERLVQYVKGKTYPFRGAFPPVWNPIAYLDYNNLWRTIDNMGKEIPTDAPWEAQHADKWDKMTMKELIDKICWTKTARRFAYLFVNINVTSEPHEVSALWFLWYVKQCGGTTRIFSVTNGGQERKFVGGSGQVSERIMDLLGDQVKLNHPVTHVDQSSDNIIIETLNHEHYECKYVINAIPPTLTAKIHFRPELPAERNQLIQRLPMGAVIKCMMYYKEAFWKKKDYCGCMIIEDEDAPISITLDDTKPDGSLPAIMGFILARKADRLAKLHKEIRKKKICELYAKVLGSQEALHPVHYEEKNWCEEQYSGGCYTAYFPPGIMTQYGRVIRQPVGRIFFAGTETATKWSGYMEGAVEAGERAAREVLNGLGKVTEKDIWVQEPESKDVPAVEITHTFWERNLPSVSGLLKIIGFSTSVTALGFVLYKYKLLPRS

[10] = Antioxidant activity assessed as O2 radical scavenging activity after 1 hr; assay type: functional
[11] = molecular target: T1, Amyloid-beta precursor protein; assay: Inhibition of beta amyloid in human SH-SY5Y cells; assay type: cell-based

Sequence of Acetylcholinesterase (Electrophorus electricus) (O42275 24-633 limits assumed): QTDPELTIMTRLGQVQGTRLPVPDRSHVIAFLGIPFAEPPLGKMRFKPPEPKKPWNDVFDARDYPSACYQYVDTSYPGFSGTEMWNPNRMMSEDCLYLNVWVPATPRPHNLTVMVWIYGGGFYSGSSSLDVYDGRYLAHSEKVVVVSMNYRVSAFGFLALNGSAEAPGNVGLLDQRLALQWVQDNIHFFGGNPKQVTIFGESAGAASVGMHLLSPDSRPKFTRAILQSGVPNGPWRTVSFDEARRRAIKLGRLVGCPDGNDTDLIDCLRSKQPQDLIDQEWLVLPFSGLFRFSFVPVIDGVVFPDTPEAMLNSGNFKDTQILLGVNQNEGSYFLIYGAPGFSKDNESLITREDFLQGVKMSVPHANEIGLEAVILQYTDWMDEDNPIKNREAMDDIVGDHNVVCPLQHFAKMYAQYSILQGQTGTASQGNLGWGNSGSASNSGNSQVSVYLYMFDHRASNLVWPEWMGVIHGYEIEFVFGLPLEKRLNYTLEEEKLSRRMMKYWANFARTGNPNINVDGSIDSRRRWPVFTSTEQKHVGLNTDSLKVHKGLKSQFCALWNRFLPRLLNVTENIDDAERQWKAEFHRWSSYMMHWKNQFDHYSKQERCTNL

Question: Which results are given for O=c1oc2c(O)c(O)cc3c(=O)oc4c(O)c(O)cc1c4c23 [ELLAGIC ACID]?
Answer: EC24 [1]: 250 µM; EC50 [2]: 24.2 µM; IC50 [3]: 133 µM; IC50 [4]: 100 to 300 µM; IC50 [5]: 1 to 150 µM; EC50 [6]: 6.9 µM; EC16 [7]: 250 µM; IC50 [8]: 31.1 µM; EC50 [9]: 1.6 µM; EC50 [10]: 177 µM; IC50 [11]: 300 µM
